Measured values as given in patent publication US5100913A, “Novel sulfonylphenyl-β-D-thioxylosides, their method of preparation and their use in therapeutics” (Fournier Industrie et Sante, priority 1990, dated 1992).

Tested on: venous thrombosis
Assay: antithrombotic activity, venous thrombosis: venous stasis under hypercoagulation (Wessler), thrombus removed and weighed
Assay type: in vivo, male Wistar rats
Conditions: Rattus norvegicus, oral, suspension in PEG 400, thrombosis induced 4 hours after treatment
Experimental: A venous stasis under hypercoagulation is produced according to the technique described by WESSLER et al. (J. Applied Physiol. 1959, p. 943-946). As in the technique described by J. HAUPMAN et al. (Thrombosis and Haemostasis 43(2), 1980, p. 118), the hypercoagulant used is a solution of activated factor X (Xa) supplied by Flow Laboratories (71 Knat per 12.5 ml of isotonic solution).
The study is performed on unfasted male Wistar rats weighing 250 to 280 g, divided into groups of 10 animals each. The test products are administered orally as a suspension in PEG 400. A thrombosis is induced 4 hours after this treatment and the thrombus formed is removed and weighed.
The results obtained at a dose of 3 mg/kg, administered orally, have been collated in Table I. The results obtained with the known products of the afore-mentioned prior art have also been collated in this Table.

CC(=O)O[C@@H]1[C@@H](OC(C)=O)[C@H](Sc2ccc(S(=O)(=O)c3ccccc3)cc2)SC[C@H]1OC(C)=O [Example 1, 4-(phenylsulfonyl)phenyl 2,3,4-tri-O-acetyl-1,5-dithio-β-D-xylopyranoside] gave an inhibition in vivo at 3 mg/kg of 20%.

O=S(=O)(c1ccccc1)c1ccc(S[C@@H]2SC[C@@H](O)[C@H](O)[C@H]2O)cc1 [Example 2, 4-(phenylsulfonyl)phenyl 1,5-dithio-β-D-xylopyranoside] gave an inhibition in vivo at 3 mg/kg of 49%.

For CC(=O)O[C@@H]1[C@@H](OC(C)=O)[C@H](Sc2ccccc2S(C)(=O)=O)SC[C@H]1OC(C)=O [Example 3, 2-(methylsulfonyl)phenyl 2,3,4-tri-O-acetyl-1,5-dithio-β-D-xylopyranoside], the inhibition in vivo at 3 mg/kg was 29%.

CS(=O)(=O)c1ccccc1S[C@@H]1SC[C@@H](O)[C@H](O)[C@H]1O [Example 4, 2-(methylsulfonyl)phenyl 1.5-dithio-β-D-xylopyranoside] was tested, and the inhibition in vivo at 3 mg/kg was 26%.

Molecule CS(=O)(=O)c1ccc(S[C@@H]2SC[C@@H](O)[C@H](O)[C@H]2O)cc1 [Example 6, 4-(methylsulfonyl)phenyl 1,5-dithio-β-D-xylopyranoside] has an inhibition in vivo at 3 mg/kg of 61%.

In the case of CS(=O)(=O)c1ccc(O[C@@H]2SC[C@@H](O)[C@H](O)[C@H]2O)cc1 [Example 8, 4-(methylsulfonyl)phenyl 5-thio-β-D-xylpyranoside], the inhibition in vivo at 3 mg/kg is reported as 30%.

In the case of CCS(=O)(=O)c1ccc(S[C@@H]2SC[C@@H](OC(C)=O)[C@H](OC(C)=O)[C@H]2OC(C)=O)cc1 [Example 9, 4-(ethylsulfonyl)phenyl 2,3,4-tri-O-acetyl-1,5-dithio-β-D-xylpyranoside], the inhibition in vivo at 3 mg/kg is reported as 31%.

With CCS(=O)(=O)c1ccc(S[C@@H]2SC[C@@H](O)[C@H](O)[C@H]2O)cc1 [Example 10, 4-(ethylsulfonyl)phenyl 1,5dithio-β-D-xylopyranoside] the inhibition in vivo at 3 mg/kg was 31%.

For CS(=O)(=O)c1cccc(S[C@@H]2SC[C@@H](O)[C@H](O)[C@H]2O)c1 [Example 12], the inhibition in vivo at 3 mg/kg was 43%.

In the case of CC(=O)O[C@@H]1[C@@H](OC(C)=O)[C@H](Sc2ccc(S(=O)(=O)c3ccc(F)cc3)cc2)SC[C@H]1OC(C)=O [Example 13], the inhibition in vivo at 3 mg/kg is reported as 58%.

Work on O=S(=O)(c1ccc(F)cc1)c1ccc(S[C@@H]2SC[C@@H](O)[C@H](O)[C@H]2O)cc1 [Example 14, 4-[(4-fluorophenyl)sulfonyl]phenyl 1,5-dithio-β-D-xylpyranoside] yielded an inhibition in vivo at 3 mg/kg of 61%.

Work on N#Cc1ccc(S(=O)(=O)c2ccc(S[C@@H]3SC[C@@H](O)[C@H](O)[C@H]3O)cc2)cc1 [Example 16, 4-((4-cyanophenyl)sulfonyl)phenyl 1,5-dithio-β-D-xylopyranoside] yielded an inhibition in vivo at 3 mg/kg of 66%.

In the case of CC(=O)O[C@@H]1[C@@H](OC(C)=O)[C@H](Sc2ccc(S(=O)(=O)N(C)C)cc2)SC[C@H]1OC(C)=O [Example 17, 4-(N,N-dimethylsulfonamidyl)phenyl 2,3,4-tri-O-acetyl-1,5-dithio-β-D-xylpyranoside], the inhibition in vivo at 3 mg/kg is reported as 56%.

For CN(C)S(=O)(=O)c1ccc(S[C@@H]2SC[C@@H](O)[C@H](O)[C@H]2O)cc1 [Example 18, 4-(N,N-dimethylsulfonamidyl)phenyl 1.5-dithio-β-D-xylopyranoside], the inhibition in vivo at 3 mg/kg was 46%.

For CC(=O)O[C@@H]1[C@@H](OC(C)=O)[C@H](OC(C)=O)CS[C@H]1Oc1ccc(S(=O)(=O)N(C)C)cc1 [Example 19, 4-(N,N-dimethylsulfonamidyl)phenyl 2,3,4-tri-O-acetyl-5-thio-β-D-xylpyranoside], the inhibition in vivo at 3 mg/kg was 23%.

CN(C)S(=O)(=O)c1ccc(O[C@@H]2SC[C@@H](O)[C@H](O)[C@H]2O)cc1 [Example 20, 4-(N,N-dimethylsulfonamidyl)phenyl 5-thio-β-D-xylpyranoside] was tested, and the inhibition in vivo at 3 mg/kg was 58%.

Molecule O=S(=O)(c1ccc(S[C@@H]2SC[C@@H](O)[C@H](O)[C@H]2O)cc1)N1CCCCC1 [Example 22, 4-(N-(piperidin-1-yl)sulfonamidyl)phenyl 1,5-dithio-β-D-xylpyranoside] has an inhibition in vivo at 3 mg/kg of 47%.
